Source: ChEMBL document CHEMBL4004838, “Design and synthesis of novel phenyl -1, 4-beta-carboline-hybrid molecules as potential anticancer agents” (Eur J Med Chem, 2017)

How the values were obtained:
Format in all cases: functional
[1] = tested on: M14; assay: Growth inhibition of human M14 cells incubated for 48 hrs by sulforhodamine B assay; conditions: M14, 48 h
[2] = tested on: M14; assay: Growth inhibition of human M14 cells assessed as cell growth at 0.1 uM incubated for 48 hrs by sulforhodamine B assay relative to control; conditions: M14, 48 h, read-out: Activity
[3] = tested on: COLO 205; assay: Growth inhibition of human COLO205 cells assessed as cell growth at 0.1 uM incubated for 48 hrs by sulforhodamine B assay relative to control; conditions: COLO 205, 48 h, read-out: Activity
[4] = tested on: OVCAR-5; assay: Growth inhibition of human OVCAR5 cells assessed as cell growth at 1 uM incubated for 48 hrs by sulforhodamine B assay relative to control; conditions: OVCAR-5, 48 h, read-out: Activity
[5] = tested on: NCI/ADR-RES; assay: Growth inhibition of human NCI-ADR-RES cells incubated for 48 hrs by sulforhodamine B assay
[6] = tested on: SF-295; assay: Growth inhibition of human SF295 cells assessed as cell growth at 100 uM incubated for 48 hrs by sulforhodamine B assay relative to control; conditions: SF-295, 48 h, read-out: Activity
[7] = tested on: UO-31; assay: Growth inhibition of human UO31 cells assessed as cell growth at 0.1 uM incubated for 48 hrs by sulforhodamine B assay relative to control; conditions: UO-31, 48 h, read-out: Activity
[8] = tested on: NCI-H460; assay: Growth inhibition of human NCI-H460 cells assessed as cell growth at 100 uM incubated for 48 hrs by sulforhodamine B assay relative to control; conditions: NCI-H460, 48 h, read-out: Activity
[9] = tested on: OVCAR-5; assay: Growth inhibition of human OVCAR5 cells assessed as cell growth at 0.01 uM incubated for 48 hrs by sulforhodamine B assay relative to control; conditions: OVCAR-5, 48 h, read-out: Activity
[10] = tested on: EKVX; assay: Growth inhibition of human EKVX cells incubated for 48 hrs by sulforhodamine B assay
[11] = tested on: TK-10; assay: Growth inhibition of human TK10 cells incubated for 48 hrs by sulforhodamine B assay; conditions: TK-10, 48 h
[12] = tested on: DU-145; assay: Growth inhibition of human DU145 cells incubated for 48 hrs by sulforhodamine B assay; conditions: DU-145, 48 h
[13] = tested on: OVCAR-4; assay: Growth inhibition of human OVCAR4 cells assessed as cell growth at 100 uM incubated for 48 hrs by sulforhodamine B assay relative to control; conditions: OVCAR-4, 48 h, read-out: Activity
[14] = tested on: HT-29; assay: Growth inhibition of human HT-29 cells assessed as cell growth at 0.1 uM incubated for 48 hrs by sulforhodamine B assay relative to control; conditions: HT-29, 48 h, read-out: Activity
[15] = tested on: SNB-75; assay: Growth inhibition of human SNB75 cells assessed as cell growth at 0.01 uM incubated for 48 hrs by sulforhodamine B assay relative to control; conditions: SNB-75, 48 h, read-out: Activity
[16] = tested on: SK-OV-3; assay: Growth inhibition of human SKOV3 cells assessed as cell growth at 0.01 uM incubated for 48 hrs by sulforhodamine B assay relative to control; conditions: SK-OV-3, 48 h, read-out: Activity
[17] = tested on: MCF7; assay: Growth inhibition of human MCF7 cells incubated for 48 hrs by sulforhodamine B assay; conditions: MCF7, 48 h
[18] = tested on: MDA-MB-435; assay: Growth inhibition of human MDA-MB-435 cells incubated for 48 hrs by sulforhodamine B assay; conditions: MDA-MB-435, 48 h
[19] = tested on: HCT-15; assay: Growth inhibition of human HCT15 cells incubated for 48 hrs by sulforhodamine B assay; conditions: HCT-15, 48 h
[20] = tested on: M14; assay: Growth inhibition of human M14 cells assessed as cell growth at 100 uM incubated for 48 hrs by sulforhodamine B assay relative to control; conditions: M14, 48 h, read-out: Activity
[21] = tested on: NCI-H322M; assay: Growth inhibition of human NCI-H322M cells assessed as cell growth at 0.01 uM incubated for 48 hrs by sulforhodamine B assay relative to control; conditions: read-out: Activity
[22] = tested on: RPMI-8226; assay: Growth inhibition of human RPMI8226 cells assessed as cell growth at 1 uM incubated for 48 hrs by sulforhodamine B assay relative to control; conditions: RPMI-8226, 48 h, read-out: Activity
[23] = tested on: NCI-H522; assay: Growth inhibition of human NCI-H522 cells assessed as cell growth at 1 uM incubated for 48 hrs by sulforhodamine B assay relative to control; conditions: NCI-H522, 48 h, read-out: Activity
[24] = tested on: UACC-62; assay: Growth inhibition of human UACC62 cells assessed as cell growth at 100 uM incubated for 48 hrs by sulforhodamine B assay relative to control; conditions: UACC-62, 48 h, read-out: Activity
[25] = tested on: EKVX; assay: Growth inhibition of human EKVX cells assessed as cell growth at 0.1 uM incubated for 48 hrs by sulforhodamine B assay relative to control; conditions: read-out: Activity
[26] = tested on: NCI-H460; assay: Growth inhibition of human NCI-H460 cells incubated for 48 hrs by sulforhodamine B assay; conditions: NCI-H460, 48 h
[27] = tested on: A498; assay: Growth inhibition of human A498 cells assessed as cell growth at 1 uM incubated for 48 hrs by sulforhodamine B assay relative to control; conditions: A498, 48 h, read-out: Activity
[28] = tested on: NCI-H460; assay: Growth inhibition of human NCI-H460 cells assessed as cell growth at 0.1 uM incubated for 48 hrs by sulforhodamine B assay relative to control; conditions: NCI-H460, 48 h, read-out: Activity
[29] = tested on: NCI-H322M; assay: Growth inhibition of human NCI-H322M cells assessed as cell growth at 1 uM incubated for 48 hrs by sulforhodamine B assay relative to control; conditions: read-out: Activity
[30] = tested on: OVCAR-4; assay: Growth inhibition of human OVCAR4 cells assessed as cell growth at 0.01 uM incubated for 48 hrs by sulforhodamine B assay relative to control; conditions: OVCAR-4, 48 h, read-out: Activity
[31] = read-out: LC50 (the source's name)
[32] = read-out: pLC50 (the source's name) (converted)

c1ccc2[nH]c(-c3ccc(-c4nccc5c4[nH]c4ccccc45)cc3)nc2c1
GI50 ([1]; read-out: GI50): 1.79 µM | CC50 [1, 31]: 7.12 µM | TGI ([1]; read-out: TGI): 3.57 µM | GI50 ([1]; read-out: pGI50 (converted)): 1.78 µM | CC50 [1, 32]: 7.08 µM | TGI ([1]; read-out: pTGI (converted)): 3.55 µM | growth at 0.1 µM [2]: 98% | growth at 0.1 µM [3]: 97% | growth at 1 µM [4]: 96% | GI50 ([5]; read-out: GI50): 3.5 µM | CC50 [5, 31]: > 1 µM | GI50 ([5]; read-out: pGI50 (converted)): 3.47 µM | CC50 ([5]; read-out: pLC50 (converted)): > 100 µM | TGI ([5]; read-out: pTGI (converted)): 15.1 µM | growth at 100 µM [6]: 71% | growth at 0.1 µM [7]: 91% | growth at 100 µM [8]: 38% | growth at 0.01 µM [9]: 94% | GI50 ([10]; read-out: GI50): 3.45 µM | CC50 [10, 31]: > 1 µM | GI50 ([10]; read-out: pGI50 (converted)): 3.47 µM | CC50 [10, 32]: > 100 µM | TGI ([10]; read-out: pTGI (converted)): 17 µM | GI50 ([11]; read-out: GI50): 2.07 µM | CC50 [11, 31]: 1.08 µM | TGI ([11]; read-out: TGI): 4.59 µM | GI50 ([11]; read-out: pGI50 (converted)): 2.09 µM | CC50 [11, 32]: 10.7 µM | TGI ([11]; read-out: pTGI (converted)): 4.57 µM | GI50 ([12]; read-out: GI50): 4.02 µM | CC50 [12, 31]: 5.74 µM | GI50 ([12]; read-out: pGI50 (converted)): 3.98 µM | CC50 [12, 32]: 57.5 µM | TGI ([12]; read-out: pTGI (converted)): 16.2 µM | growth at 100 µM [13]: 42% | growth at 0.1 µM [14]: 98% | growth at 0.01 µM [15]: 81% | growth at 0.01 µM [16]: 93% | GI50 ([17]; read-out: GI50): 3.56 µM | CC50 [17, 31]: 8.86 µM | GI50 ([17]; read-out: pGI50 (converted)): 3.55 µM | CC50 [17, 32]: 89.1 µM | TGI ([17]; read-out: pTGI (converted)): 17.4 µM | GI50 ([18]; read-out: GI50): 1.92 µM | CC50 [18, 31]: 9.51 µM | TGI ([18]; read-out: TGI): 4.27 µM | GI50 ([18]; read-out: pGI50 (converted)): 1.91 µM | CC50 [18, 32]: 9.55 µM | TGI ([18]; read-out: pTGI (converted)): 4.27 µM | GI50 ([19]; read-out: GI50): 2.22 µM | LC50 ([19]; read-out: LC50): 3 µM | TGI ([19]; read-out: TGI): 5.61 µM | GI50 ([19]; read-out: pGI50 (converted)): 2.24 µM | LC50 ([19]; read-out: pLC50 (converted)): 30.2 µM | TGI ([19]; read-out: pTGI (converted)): 5.62 µM | growth at 100 µM [20]: 76% | growth at 0.01 µM [21]: 92% | growth at 1 µM [22]: 106% | growth at 1 µM [23]: 91% | growth at 100 µM [24]: 57% | growth at 0.1 µM [25]: 96% | GI50 ([26]; read-out: GI50): 3.03 µM | CC50 [26, 31]: > 1 µM | TGI ([26]; read-out: TGI): 9.8 µM | GI50 ([26]; read-out: pGI50 (converted)): 3.02 µM | CC50 [26, 32]: > 100 µM | TGI ([26]; read-out: pTGI (converted)): 9.77 µM | growth at 1 µM [27]: 92% | growth at 0.1 µM [28]: 110% | growth at 1 µM [29]: 96% | growth at 0.01 µM [30]: 90%
